# Results as given in publication PMC8296573, “Synthesis and Biological Evaluation of Fingolimod Derivatives as Antibacterial Agents” (ACS Omega, 2021).
# Where two headings read alike, the source gives them in different places.
# Key:
# S. aureus ATCC 25923 [1] = experiment: Antibacterial activity, pre-exposure (planktonic cells and biofilm formation); format: cell-based, Staphylococcus aureus; settings: for MIC / inhibition at 5 µM / inhibition at 10 µM / inhibition at 15 µM / inhibition at 25 µM: Staphylococcus aureus, ATCC25923; for inhibition at 5 µM / inhibition at 10 µM / inhibition at 15 µM / inhibition at 25 µM / Average inhibition %, biofilms viability / Average inhibition %, planktonic cells viability: pre-exposure, ± SD
# Summary of the method: (§1)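 Read-outs were turbidity and resazurin reduction for planktonic cells, and resazurin followed by crystal violet biomass (A595) for biofilms. Compounds were present from inoculation onward, with 18 h aerobic growth at 37 °C under shaking.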
# S. aureus ATCC 25923 [2] = experiment: Antibacterial activity, post-exposure on preformed 18-h-old biofilms; format: cell-based, Staphylococcus aureus; settings: ± SD; for inhibition at 25 µM / inhibition at 50 µM / inhibition at 100 µM / inhibition at 200 µM: Staphylococcus aureus; for inhibition at 25 µM: ATCC25923, 25 µM; for inhibition at 50 µM: ATCC25923, 50 µM; for inhibition at 100 µM: ATCC25923, 100 µM; for inhibition at 200 µM: ATCC25923, 200 µM
# Summary of the method: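 Biofilms grown 18 h without compound, medium then replaced and compound added for a further 24 h. Planktonic OD and resazurin (20 μM final) fluorescence (ex 560/em 590 nm) read; washed biofilms stained with 20 μM resazurin 30 min at 37 °C, then ethanol-fixed and crystal violet-stained, absorbance 595 nm.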
# A. baumannii NCTC 13423 = experiment: Antibacterial activity, pre-exposure; format: cell-based, Acinetobacter baumannii; settings: for Average inhibition %, biofilms viability / Average inhibition %, planktonic cells viability / inhibition at 10 µM / inhibition at 15 µM / inhibition at 25 µM / inhibition at 50 µM: A. baumannii NCTC 13423, pre-exposure, ± SD; for inhibition at 10 µM / inhibition at 15 µM / inhibition at 25 µM / inhibition at 50 µM / MIC: Acinetobacter baumannii, NCTC13423
# Summary of the method: as §1
# P. aeruginosa ATCC 9027 = experiment: Antibacterial activity, pre-exposure; format: cell-based, Pseudomonas aeruginosa; settings: for Average inhibition %, biofilms viability / Average inhibition %, planktonic cells viability / inhibition at 50 µM / inhibition at 100 µM / inhibition at 150 µM / inhibition at 200 µM: P. aeruginosa ATCC 9027, pre-exposure, ± SD; for inhibition at 50 µM / inhibition at 100 µM / inhibition at 150 µM / inhibition at 200 µM: Pseudomonas aeruginosa, ATCC9027
# Summary of the method: as §1
# [3] = 10 µM, read-out: Average inhibition %, biofilms biomass
# [4] = 10 µM, read-out: Average inhibition %, planktonic cells turbidity
# [5] = 15 µM, read-out: Average inhibition %, biofilms biomass
# [6] = 15 µM, read-out: Average inhibition %, planktonic cells turbidity
# [7] = 25 µM, read-out: Average inhibition %, biofilms biomass
# [8] = 25 µM, read-out: Average inhibition %, planktonic cells turbidity
# [9] = read-out: Average inhibition %, biofilms biomass
# [10] = read-out: Average inhibition %, planktonic cells turbidity
# [11] = 50 µM, read-out: Average inhibition %, biofilms biomass
# [12] = 50 µM, read-out: Average inhibition %, planktonic cells turbidity
smiles,measurement,setting,value
"CCCCCCCCCCc1ccc2nc(CC(N)(CO)CO)ccc2c1 [Compound 83, 2-Amino-2-[(6-decylquinolin-2-yl)methyl]propane-1,3-diol]",MIC,"S. aureus ATCC 25923 [1]; lowest concentration with no visible growth (>90% inhibition of turbidity and viability of planktonic cells), 18 h, read-out: MIC S. aureus ATCC 25923",10 µM
same,inhibition at 5 µM,"S. aureus ATCC 25923 [1]; 5 µM, read-out: Average inhibition %, biofilms biomass",37.3 ± 7.9%
same,inhibition at 5 µM,"S. aureus ATCC 25923 [1]; 5 µM, read-out: Average inhibition %, planktonic cells turbidity",37.9 ± 5.1%
same,inhibition at 10 µM,S. aureus ATCC 25923 [1]; [3],97.3 ± 0.8%
same,inhibition at 10 µM,S. aureus ATCC 25923 [1]; [4],99.5 ± 0.2%
same,inhibition at 15 µM,S. aureus ATCC 25923 [1]; [5],93.9 ± 1.4%
same,inhibition at 15 µM,S. aureus ATCC 25923 [1]; [6],99.4 ± 0.1%
same,inhibition at 25 µM,S. aureus ATCC 25923 [1]; [7],89.4 ± 1.4%
same,inhibition at 25 µM,S. aureus ATCC 25923 [1]; [8],99 ± 0.2%
same,MIC,S. aureus ATCC 25923 [1]; read-out: MIC (S. aureus),10 µM
same,"Average inhibition %, biofilms viability",S. aureus ATCC 25923 [1]; 5 µM,34.6 ± 5.8%
same,"Average inhibition %, planktonic cells viability",S. aureus ATCC 25923 [1]; 5 µM,6.9 ± 10.7%
same,"Average inhibition %, biofilms viability",S. aureus ATCC 25923 [1]; 10 µM,99.6 ± 0.4%
same,"Average inhibition %, planktonic cells viability",S. aureus ATCC 25923 [1]; 10 µM,99.6 ± 0%
same,"Average inhibition %, biofilms viability",S. aureus ATCC 25923 [1]; 15 µM,99.8 ± 0.6%
same,"Average inhibition %, planktonic cells viability",S. aureus ATCC 25923 [1]; 15 µM,99.6 ± 0%
same,"Average inhibition %, biofilms viability",S. aureus ATCC 25923 [1]; 25 µM,99.6 ± 0.4%
same,"Average inhibition %, planktonic cells viability",S. aureus ATCC 25923 [1]; 25 µM,99.7 ± 0%
same,"Average inhibition %, biofilms viability",S. aureus ATCC 25923 [2]; 25 µM,16.8 ± 17.2%
same,"Average inhibition %, planktonic cells viability",S. aureus ATCC 25923 [2]; 25 µM,14.1 ± 20.9%
same,"Average inhibition %, biofilms viability",S. aureus ATCC 25923 [2]; 50 µM,34.4 ± 15.3%
same,"Average inhibition %, planktonic cells viability",S. aureus ATCC 25923 [2]; 50 µM,22.7 ± 19.5%
same,"Average inhibition %, biofilms viability",S. aureus ATCC 25923 [2]; 100 µM,56.6 ± 18.2%
same,"Average inhibition %, planktonic cells viability",S. aureus ATCC 25923 [2]; 100 µM,80.3 ± 17.9%
same,"Average inhibition %, biofilms viability",S. aureus ATCC 25923 [2]; 200 µM,58.6 ± 19.5%
same,"Average inhibition %, planktonic cells viability",S. aureus ATCC 25923 [2]; 200 µM,88.3 ± 12.1%
same,inhibition at 25 µM,S. aureus ATCC 25923 [2]; [9],31.7 ± 20.9%
same,inhibition at 25 µM,S. aureus ATCC 25923 [2]; [10],27.1 ± 19.8%
same,inhibition at 50 µM,S. aureus ATCC 25923 [2]; [9],50.3 ± 6.4%
same,inhibition at 50 µM,S. aureus ATCC 25923 [2]; [10],28.3 ± 13.2%
same,inhibition at 100 µM,S. aureus ATCC 25923 [2]; [9],71.3 ± 10.2%
same,inhibition at 100 µM,S. aureus ATCC 25923 [2]; [10],64.4 ± 14%
same,inhibition at 200 µM,S. aureus ATCC 25923 [2]; [9],71.5 ± 5.8%
same,inhibition at 200 µM,S. aureus ATCC 25923 [2]; [10],65.3 ± 5.8%
same,"Average inhibition %, biofilms viability",A. baumannii NCTC 13423; 10 µM,0.7 ± 1.2%
same,"Average inhibition %, planktonic cells viability",A. baumannii NCTC 13423; 10 µM,8 ± 5.8%
same,"Average inhibition %, biofilms viability",A. baumannii NCTC 13423; 15 µM,1.2 ± 2.2%
same,"Average inhibition %, planktonic cells viability",A. baumannii NCTC 13423; 15 µM,7.2 ± 6.6%
same,"Average inhibition %, biofilms viability",A. baumannii NCTC 13423; 25 µM,5.6 ± 6.6%
same,"Average inhibition %, planktonic cells viability",A. baumannii NCTC 13423; 25 µM,3.1 ± 3.1%
same,"Average inhibition %, biofilms viability",A. baumannii NCTC 13423; 50 µM,68.9 ± 2.6%
same,"Average inhibition %, planktonic cells viability",A. baumannii NCTC 13423; 50 µM,95.2 ± 1.7%
same,inhibition at 10 µM,A. baumannii NCTC 13423; [3],6.4 ± 9.4%
same,inhibition at 10 µM,A. baumannii NCTC 13423; [4],0%
same,inhibition at 15 µM,A. baumannii NCTC 13423; [5],0%
same,inhibition at 15 µM,A. baumannii NCTC 13423; [6],0%
same,inhibition at 25 µM,A. baumannii NCTC 13423; [7],0%
same,inhibition at 25 µM,A. baumannii NCTC 13423; [8],11.8 ± 12.4%
same,inhibition at 50 µM,A. baumannii NCTC 13423; [11],10.4 ± 10.2%
same,inhibition at 50 µM,A. baumannii NCTC 13423; [12],88.3 ± 1.5%
same,MIC,"A. baumannii NCTC 13423; pre-exposure, Inactive = no activity up to 50 μM, > = some inhibition but no MIC reached, read-out: MIC A. baumannii NCTC 13423",> 50 µM
same,MIC,"A. baumannii NCTC 13423; supplementary molecular formula strings sheet, read-out: MIC (A. baumannii)",> 50 µM
same,"Average inhibition %, biofilms viability",P. aeruginosa ATCC 9027; 50 µM,12.2 ± 21.1%
same,"Average inhibition %, planktonic cells viability",P. aeruginosa ATCC 9027; 50 µM,10.5 ± 6.5%
same,"Average inhibition %, biofilms viability",P. aeruginosa ATCC 9027; 100 µM,0.5 ± 0.9%
same,"Average inhibition %, planktonic cells viability",P. aeruginosa ATCC 9027; 100 µM,14.8 ± 0.4%
same,"Average inhibition %, biofilms viability",P. aeruginosa ATCC 9027; 150 µM,2.6 ± 3.8%
same,"Average inhibition %, planktonic cells viability",P. aeruginosa ATCC 9027; 150 µM,20.2 ± 15%
same,"Average inhibition %, biofilms viability",P. aeruginosa ATCC 9027; 200 µM,1.1 ± 1%
same,"Average inhibition %, planktonic cells viability",P. aeruginosa ATCC 9027; 200 µM,16.3 ± 15.7%
same,inhibition at 50 µM,P. aeruginosa ATCC 9027; [11],6.4 ± 11.1%
same,inhibition at 50 µM,P. aeruginosa ATCC 9027; [12],35.2 ± 3%
same,inhibition at 100 µM,"P. aeruginosa ATCC 9027; 100 µM, read-out: Average inhibition %, biofilms biomass",2.1 ± 2.3%
same,inhibition at 100 µM,"P. aeruginosa ATCC 9027; 100 µM, read-out: Average inhibition %, planktonic cells turbidity",38.6 ± 10.1%
same,inhibition at 150 µM,"P. aeruginosa ATCC 9027; 150 µM, read-out: Average inhibition %, biofilms biomass",1.3 ± 2.3%
same,inhibition at 150 µM,"P. aeruginosa ATCC 9027; 150 µM, read-out: Average inhibition %, planktonic cells turbidity",34.8 ± 16.4%
same,inhibition at 200 µM,"P. aeruginosa ATCC 9027; 200 µM, read-out: Average inhibition %, biofilms biomass",3.7 ± 4.7%
same,inhibition at 200 µM,"P. aeruginosa ATCC 9027; 200 µM, read-out: Average inhibition %, planktonic cells turbidity",33.2 ± 7.3%
same,MIC P. aeruginosa ATCC 9027,"P. aeruginosa ATCC 9027; pre-exposure, Inactive = no activity up to 200 μM, > = some inhibition but no MIC reached",Inactive
